Measured values from ChEMBL document CHEMBL1201862, “PubChem BioAssay data set” (2004).
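Following 48 hours of exposure in 96-well plates, responses at five concentrations were used to interpolate endpoints linearly. GI50 = concentration required for 50% inhibition of growth.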 Calls of active or inactive are those of the source. No stated cut-off is given here; in the data, active = GI50 up to about 1.1 µM and inactive = higher.

Legend:
Assay in all cases: growth of human tumour cells (NCI), 48 h
SNB-19 = test system: SNB-19
U-251 = test system: U-251
LOX IMVI = test system: LOX IMVI
M14 = test system: M14
HCT-116 = test system: HCT-116
SK-MEL-2 = test system: SK-MEL-2
HT-29 = test system: HT-29
NCI-H23 = test system: NCI-H23
A549 = test system: A549
ACHN = test system: ACHN
SR = test system: SR
KM12 = test system: KM12
786-0 = test system: 786-0
SK-OV-3 = test system: SK-OV-3
SF-539 = test system: SF-539
SNB-75 = test system: SNB-75
SW-620 = test system: SW-620
TK-10 = test system: TK-10
A498 = test system: A498
RXF 393 = test system: RXF 393

Structure (SMILES) | GI50 (SNB-19) | GI50 (U-251) | GI50 (LOX IMVI) | GI50 (M14) | GI50 (HCT-116) | GI50 (SK-MEL-2) | GI50 (HT-29) | GI50 (NCI-H23) | GI50 (A549) | GI50 (ACHN) | GI50 (SR) | GI50 (KM12) | GI50 (786-0) | GI50 (SK-OV-3) | GI50 (SF-539) | GI50 (SNB-75) | GI50 (SW-620) | GI50 (TK-10) | GI50 (A498) | GI50 (RXF 393)
O=C(CN1CCCCC1)Nc1ccc2sc3ccccc3c(=O)c2n1 | 19.9 µM (inactive) | 16.6 µM (inactive) | 7.01 µM (inactive) | 17.9 µM (inactive) | 9.23 µM (inactive) | 18.6 µM (inactive) | 30.3 µM (inactive) | 16.9 µM (inactive) | 15 µM (inactive) | 14.2 µM (inactive) | 21.5 µM (inactive) | 19.1 µM (inactive) | 12.9 µM (inactive) | 21.3 µM (inactive) | 16.4 µM (inactive) | 15.2 µM (inactive) | 5.25 µM (inactive) | 19.1 µM (inactive) |  | 
CC(=O)O[C@H]1CN(S(=O)(=O)c2ccc(C)cc2)C[C@@H]1C1CCCCC1 | 55.3 µM (inactive) | 29.7 µM (inactive) | 21.6 µM (inactive) | 17.7 µM (inactive) |  | 18.7 µM (inactive) | 24.4 µM (inactive) | 36.3 µM (inactive) |  | 36.9 µM (inactive) | 18.6 µM (inactive) | 17.9 µM (inactive) |  | 43.7 µM (inactive) | < 0.01 µM (active) | 24.9 µM (inactive) | 26.1 µM (inactive) | 21.9 µM (inactive) | > 100 µM (inactive) | 
COc1cc(/C=C2\C[C@H]3[C@@H]4CC=C5C[C@@H](O)CC[C@]5(C)[C@H]4CC[C@]3(C)[C@H]2O)cc(OC)c1OC | 50.1 µM (inactive) | 11 µM (inactive) | 8.53 µM (inactive) | 20.7 µM (inactive) | 8.05 µM (inactive) | 12.7 µM (inactive) | 11.1 µM (inactive) | 10.3 µM (inactive) | 9.79 µM (inactive) | 6.27 µM (inactive) |  | 10.1 µM (inactive) | 10.8 µM (inactive) | 25.5 µM (inactive) | 14.3 µM (inactive) | 9.06 µM (inactive) | 26.2 µM (inactive) | 14.1 µM (inactive) | 20.9 µM (inactive) | 5.58 µM (inactive)
CC(=O)NC1=C(NC(C)(C)C)C(=O)c2ccccc2C1=O | 43.2 µM (inactive) | 37 µM (inactive) | 16.7 µM (inactive) | 17.1 µM (inactive) | 28.7 µM (inactive) | 20.6 µM (inactive) | 23.2 µM (inactive) | 18.7 µM (inactive) | 48.1 µM (inactive) | 86.1 µM (inactive) |  | 30.3 µM (inactive) | 3.4 µM (inactive) | 54 µM (inactive) | 15.8 µM (inactive) | 13.6 µM (inactive) | 14.1 µM (inactive) | 19.3 µM (inactive) | 23.1 µM (inactive) | 17.9 µM (inactive)
O=C1C(c2ccccc2)=[N+]([O-])c2cc([N+](=O)[O-])ccc21 | 57 µM (inactive) | 27.7 µM (inactive) | 14.3 µM (inactive) | > 10 µM (inactive) | 23.8 µM (inactive) | > 100 µM (inactive) | 21.9 µM (inactive) | 43.6 µM (inactive) | 32 µM (inactive) | 24.9 µM (inactive) |  | 20.5 µM (inactive) | 26.3 µM (inactive) | > 100 µM (inactive) | 25.5 µM (inactive) | 41.9 µM (inactive) | 60.3 µM (inactive) | 20.1 µM (inactive) | 27.6 µM (inactive) | 15.9 µM (inactive)
COC(=O)/C(=N/NC(C)(C)C)C(C(=O)OC)C(=O)C(=O)Nc1nc2ccc([N+](=O)[O-])cc2s1 (stereo not drawn) | > 100 µM (inactive) | > 100 µM (inactive) | > 100 µM (inactive) | > 100 µM (inactive) | > 100 µM (inactive) | > 100 µM (inactive) | > 100 µM (inactive) | > 100 µM (inactive) | > 100 µM (inactive) | > 100 µM (inactive) | > 100 µM (inactive) | > 100 µM (inactive) | > 100 µM (inactive) | > 100 µM (inactive) | > 100 µM (inactive) |  | > 100 µM (inactive) | > 100 µM (inactive) | 23.6 µM (inactive) | 
O=S1(=O)OCCOS(=O)(=O)C1Cl | > 100 µM (inactive) |  |  | > 100 µM (inactive) | > 100 µM (inactive) | > 100 µM (inactive) | > 100 µM (inactive) | > 100 µM (inactive) | > 100 µM (inactive) |  | > 100 µM (inactive) | > 100 µM (inactive) | > 100 µM (inactive) | > 100 µM (inactive) | > 100 µM (inactive) | > 100 µM (inactive) | > 100 µM (inactive) | > 100 µM (inactive) | > 100 µM (inactive) | 
O=C(N/N=C(\c1nc2ccc(Cl)cc2nc1O)C(O)c1ccccc1Cl)c1ccncc1 (stereo not drawn) | > 100 µM (inactive) |  | > 100 µM (inactive) | > 100 µM (inactive) | > 100 µM (inactive) | > 100 µM (inactive) | > 100 µM (inactive) | > 100 µM (inactive) | > 100 µM (inactive) | > 100 µM (inactive) |  | > 100 µM (inactive) | > 100 µM (inactive) | > 100 µM (inactive) | > 100 µM (inactive) | > 100 µM (inactive) | > 100 µM (inactive) | > 100 µM (inactive) | > 100 µM (inactive) | > 100 µM (inactive)
COc1ccc(C(=O)N2CCc3c([nH]c4ccccc34)C2C(=O)O)o1 (stereo not drawn) | > 10 µM (inactive) | > 10 µM (inactive) |  | > 10 µM (inactive) | > 10 µM (inactive) |  | > 10 µM (inactive) |  | > 10 µM (inactive) | > 10 µM (inactive) | > 10 µM (inactive) | > 10 µM (inactive) | > 10 µM (inactive) | > 10 µM (inactive) | > 10 µM (inactive) | > 10 µM (inactive) | > 10 µM (inactive) | > 10 µM (inactive) | > 10 µM (inactive) | 
COc1ccc(/C(=N/O)C(c2ccc(OC)cc2)C2C(=O)Oc3ccccc32)cc1 (stereo not drawn) |  | 87.5 µM (inactive) | 79.6 µM (inactive) | 51.3 µM (inactive) | 58.6 µM (inactive) | 38.5 µM (inactive) | > 100 µM (inactive) | 40.3 µM (inactive) | 42 µM (inactive) | 70.6 µM (inactive) | > 100 µM (inactive) | 83.4 µM (inactive) | > 100 µM (inactive) | > 100 µM (inactive) | > 100 µM (inactive) | 82.8 µM (inactive) | > 100 µM (inactive) | > 100 µM (inactive) | > 100 µM (inactive) | 
N#CC(c1nc2ccccc2nc1Cl)S(=O)(=O)c1ccccc1 (stereo not drawn) | > 100 µM (inactive) | 83.8 µM (inactive) | 43.5 µM (inactive) | > 100 µM (inactive) | > 100 µM (inactive) | 97.1 µM (inactive) |  | 37.5 µM (inactive) | > 100 µM (inactive) | > 100 µM (inactive) | > 100 µM (inactive) | > 100 µM (inactive) | > 100 µM (inactive) |  | > 100 µM (inactive) | > 100 µM (inactive) | 69.3 µM (inactive) | > 100 µM (inactive) | > 100 µM (inactive) | 
Cc1noc(/N=C2\C=C(O)C(=O)c3ccccc32)c1C | 3.91 µM (inactive) | 1.03 µM (active) | 2.14 µM (inactive) | 0.656 µM (active) | 1.69 µM (inactive) | 0.251 µM (active) | 17.6 µM (inactive) | 3.47 µM (inactive) | 5.31 µM (inactive) | 13 µM (inactive) | 18.7 µM (inactive) | 0.254 µM (active) | 21.2 µM (inactive) | 8.3 µM (inactive) | 1.04 µM (active) | 3.5 µM (inactive) |  | > 100 µM (inactive) | 29.2 µM (inactive) | 
CCCN(CCCCC(NC(C)=O)C(=O)NCc1ccccc1)C(=O)NC (stereo not drawn) | > 100 µM (inactive) | > 100 µM (inactive) | > 100 µM (inactive) | > 100 µM (inactive) | > 100 µM (inactive) | > 100 µM (inactive) | > 100 µM (inactive) | > 100 µM (inactive) | > 100 µM (inactive) | > 100 µM (inactive) |  | > 100 µM (inactive) | > 100 µM (inactive) | > 100 µM (inactive) | > 100 µM (inactive) | 95.7 µM (inactive) | > 100 µM (inactive) | > 100 µM (inactive) | > 100 µM (inactive) | > 100 µM (inactive)
Cc1c(N)nc(C(CC(N)=O)NCC(N)C(N)=O)nc1C(=O)NC(C(=O)NC(C)C(O)C(C)C(=O)NC(C(=O)NCCc1nc(-c2nc(C(=O)NCCCNCCCCN)cs2)cs1)C(C)O)C(OC1OC(CO)C(O)C(O)C1OC1OC(CO)C(O)C(OC(N)=O)C1O)c1c[nH]cn1 (stereo not drawn) | > 10 µM (inactive) | > 10 µM (inactive) | 0.461 µM (active) | 1.67 µM (inactive) | 1.29 µM (inactive) | > 10 µM (inactive) | > 10 µM (inactive) | 1.79 µM (inactive) | 4.81 µM (inactive) | 0.00622 µM (active) |  | > 10 µM (inactive) | 4.01 µM (inactive) | > 10 µM (inactive) | 0.0655 µM (active) | 0.202 µM (active) | > 10 µM (inactive) | > 10 µM (inactive) | > 10 µM (inactive) | 0.29 µM (active)
C=CCC1C2CCC(O[Si](C(C)C)(C(C)C)C(C)C)(C(C(=O)OC)C2)C1O (stereo not drawn) | > 100 µM (inactive) | 60.3 µM (inactive) |  | 94.8 µM (inactive) | 19.5 µM (inactive) | 41.9 µM (inactive) | 53.7 µM (inactive) | 23.5 µM (inactive) | 32.9 µM (inactive) | > 100 µM (inactive) | 17.6 µM (inactive) | 54.5 µM (inactive) | 17.2 µM (inactive) | > 100 µM (inactive) | > 100 µM (inactive) | 71.1 µM (inactive) | > 100 µM (inactive) | 14.4 µM (inactive) | > 100 µM (inactive) | 
